Test results reported in patent publication US20210161842A1, “ABSCISIC ACID FOR THE TREATMENT OF SKIN DISEASES” (priority 2018, published 2021).

What was measured:
[1] = test system: interleukine-8 (IL-8) in THP-1; assay: IL-8 levels (ELISA) in THP-1 monocytes inflamed with IL-17 and LPS; assay type: cell-based, human; conditions: IL-17 3 ng/ml + LPS 10 μg/ml 6 hours, then 24 hours; lysate 200, 20, 1 and 0.1 μg/ml (all doses); dexamethasone 10 μM
Protocol: (§1) In human monocytes line THP-1 (derived from patients with acute monocytic leukemia) inflammation was induces with IL-17 (3 ng/ml of culture) and lipopolysaccharide (LPS; 10 μg/ml) for 6 hours. After that different doses of the C. longa callus lysate were added (200 μg/ml, 20 μg/ml, 1 μg/ml and 0.1 μg/ml) for 24 hours. The assay was performed in 96-well plates. Tumoral necrosis factor alpha (TNF-α) and interleukine-8 (IL-8) levels were quantified by ELISA (fluorimetry, BD OpEIA, USA). One control was an assay with only the inflammatory agents at the same concentration to induce inflammation. Another control was were dexamethasone (10 μM)+Il-17/LPS.

[2] = test system: lesional skin biopsies from psoriasis patients; assay: Inflammatory marker mRNA in full-thickness lesional skin biopsies of psoriasis patients (ex vivo, RT-PCR); assay type: cell-based, human; conditions: patient with psoriatic plaque; 8 days at 37° C.; ABA 2 μL/ml; dexamethasone as control
Protocol: (§2) In skin biopsies of patients with plaque psoriasis and from patients with atopic dermatitis, it was determined the expression of several inflammatory markers (Interleukin 23A (IL-23A), C-X-C motif chemokine 10 (CXCL10), Interleukin 8 (IL-8), Interleukin 20 (IL-20), Intercellular Adhesion Molecule 1 (ICAM-1), LNC2, DEF-4, Keratin 16 (K-16), Interferon gamma (IFNg) and Interleukin 17A (IL-17A) using commercially available PCR tools for their determinations (RT-PCR by RNeasy Fibrous Tissue Mini kit and cDNA Archive kit, Sigma, ABlprism 7900HT and TaqMan probes). As a control, dexamethasone was used.
(§3) Full-thickness lesional skin biopsies from untreated atopic dermatitis and psoriasis patients were incubated in KBM medium supplemented with Ca2Cl for 8 days at 37° C., conditions that preserve human skin lesional in vitro. The different culture conditions were media, ABA (2 μL/ml (+)-(S)-cis,trans-abscisic acid). Medium was changed every 2-3 days. After incubation biopsies were cryopreserved in OCT at −80 until total mRNA was extracted with miRNeasy kit (Qiagen) according to manufacturer's protocol. RNA quality and quantity were checked using Nanodrop. RNA was conserved in RNase free water at −80° C. until analysis. RNA was converted to cDNA using the HighCapacity cDNA Reverse Transcription Kits (Applied Biosystems). Quantitative PCR was performed using TaqMan PreAmp Master Mix Kit (Applied Bioscience) and the TaqMan Gene Expression Master Mix (Applied Bioscience) following the manufacturers' protocols. Gene expression was normalized to the house-keeping gene Glyceraldehyde 3-phosphate dehydrogenase (GADPH) and normalized for each condition as 1,8e (Ct GADPH-Ct target gene) ×10000. […]
This cell culture lysate was a callus cell lysate and it was used at a final concentration of 20 μg/ml of media (KBM medium supplemented with Ca2Cl as in the assay with ABA alone). As positive or comparative control, dexamethasone (1 μM in the culture) was used.
(§4) Patients from which biopsies were obtained included 5 psoriatic cases and 3 atopic dermatitis cases.

[3] = test system: lesional skin biopsies from atopic dermatitis patients; assay: Inflammatory marker mRNA in full-thickness lesional skin biopsies of atopic dermatitis patients (ex vivo, RT-PCR); assay type: cell-based, human; conditions: patient with atopic dermatitis plaque; 8 days at 37° C.; ABA 2 μL/ml; dexamethasone as control
Protocol: as §2, §3, §4

[4] = test system: Tumoral necrosis factor alpha (TNF-α) in THP-1; assay: TNF-α levels (ELISA) in THP-1 monocytes inflamed with IL-17 and LPS; assay type: cell-based, human; conditions: IL-17 3 ng/ml + LPS 10 μg/ml 6 hours, then 24 hours; lysate 200, 20, 1 and 0.1 μg/ml (all doses); dexamethasone 10 μM
Protocol: as §1

[5] = test system: Pseudomonas aeruginosa CECT 116; assay: cfu in P. aeruginosa culture (bacteriostatic/bactericide effect); assay type: cell-based; conditions: methyl jasmonate alone
Protocol: (§5) In this example several concentrations of ABA ((+)-(S)-cis,trans-abscisic acid (synonym of (S)-5-(1-hydroxy-2,6,6-trimethyl-4-oxo-2-cyclohexen-1-yl)-3-methyl-(2Z,4E)-pentadienoic acid)) (60 μg/ml, 30 μg/ml, 15 μg/ml, 5 μg/ml) were tested in a culture of P. acnes. Different amounts of the Morinda citrifolia cell lysate disclosed in Example 6 below were also tested in the same conditions (60%, 30%, 10%, 1%, 0.5%) by weight of cell lysate in the P. acnes culture. […] The same protocol was followed with a culture of S. aureus and with a culture of M. furfur. Data are shown in next Tables 1.1 to 1.6, where bacteriostatic and bactericide concentrations are listed. Underlined concentrations are the considered bacteriostatic or fungistatic amounts and that they avoid biofilm formation.
S. aureus, P. aeruginosa, P. acnes, and M. furfur subcultures were carried out from the stock by streaking onto determined medium and incubated according to the conditions specified for each of the microorganisms according to standard procedures and as indicated below: […]
Inventors also tested the effect of methyl jasmonate in P. acnes, S. aureus, M. furfur and P. aeruginosa. […] A bactericide effect was detected at 60% w/w.

[6] = test system: Propionibacterium acnes DSM 1897; assay: cfu in P. acnes culture 24 hours after inoculum (bacteriostatic/bactericide effect); assay type: cell-based; conditions: inoc. day 320000, control 1490000
Protocol: as §5
(§6) S. aureus, P. aeruginosa, P. acnes, and M. furfur subcultures were carried out from the stock by streaking onto determined medium and incubated according to the conditions specified for each of the microorganisms according to standard procedures and as indicated below:
(§7) Further it was tested a composition comprising 30% of Morinda citrifolia cell lysate and 30×10^−4% of abscisic acid ((+)-(S)-cis,trans-abscisic acid), glycerine and preservatives (q.s. 100%) in cultures of P. acnes, S. aureus, P. aeruginosa and M. furfur. The composition was used in the microbial culture at 5% and at 10% of the culture. […]

[7] = test system: Malassezia furfur ATCC 14521; assay: cfu in M. furfur culture 24 hours after inoculum (fungistatic/fungicide effect); assay type: cell-based; conditions: inoc. day 420000, control 1470000
Protocol: as §5, §6, §7

[8] = test system: Epidermophytum floccosum DSM 10709; assay: cfu in E. floccosum culture (fungistatic effect); assay type: cell-based; conditions: ABA 60 μg/ml; inoc. day 136000, control 587500
Protocol: (§8) Following the same scheme and procedure as in Examples 1-3 above, ABA 8((+)-(S)-cis,trans-abscisic acid)) and combinations of ABA with cell culture lysates or methyl jasmonate were tested on several microorganisms forming biofilms. As before, underlined concentrations are the considered bacteriostatic or fungistatic amounts and that they avoid biofilm formation.
(§9) Biofilm generation conditions and medium for the growth of the bacteria were those recommended by the supplier of each microorganism.

[9] = test system: Epidermophytum floccosum DSM 10709; assay: E. floccosum biofilm on glass coupons (and planktonic growth in suspension); assay type: cell-based; conditions: ABA 60 μg/ml; inoc. day 96667, control 374333
Protocol: (§10) Generation of representative biofilms on borosilicate glass coupons (12.7 mm diameter and a thickness of 3.7 mm) by immersion of the coupons in a suspension of each microorganism with culture medium and the compounds of interest was tested. Evaluation of the antibiofilm properties and study of adhesion, growth and viability of biofilms on the coupons was analyzed by fluorescence staining technique and visualization of live/dead microbial was done by Laser Scanning Confocal Microscopy. The sampling and analysis of coupons to determine biofilm population density was recorded as colony-forming units (cfu) per coupon. In parallel, planktonic cells quantification in suspension was also determined.
(§11) For the determination of biofilm populations the microbial population adhered to the coupon surface were quantified by dilution and plating after biofilm disaggregation process by sonication and vortex cycles. The planktonic cells (suspension) were determined by dilution and plating. The controls were, respectively the cells on coupons or in suspension after 5 days without any treatment.
(§12) Following procedure as disclosed in Example 3, particular compositions comprising ABA ((+)-(S)-cis,trans-abscisic acid) and cell lysate of a plant cell culture of Morinda citrifolia were also tested in an assay on glass coupons that also served as example of biofilm formation on abiotic surfaces. […]

[10] = test system: Staphylococcus aureus ATCC 6538; assay: cfu in S. aureus culture 24 hours after inoculum (bacteriostatic/bactericide effect); assay type: cell-based; conditions: ABA 60 μg/ml, inoc. day 520000, control 3310000
Protocol: as §5, §6, §7

[11] = test system: Streptococcus mutans DSM 20523; assay: cfu in S. mutans culture (bacteriostatic/bactericide effect); assay type: cell-based; conditions: inoc. day 200000, control 109000 × 10
Protocol: as §8, §9

[12] = test system: Candida albicans DSM 3454; assay: C. albicans biofilm on glass coupons (and planktonic growth in suspension); assay type: cell-based; conditions: ABA 60 μg/ml; inoc. day 184000, control 460000
Protocol: as §10, §11, §12

[13] = test system: Candida albicans DSM 3454; assay: cfu in C. albicans culture (fungistatic/fungicide effect); assay type: cell-based; conditions: ABA 60 μg/ml; inoc. day 264000, control 456500
Protocol: as §8, §9

Compound	CXCL10 mRNA, % of inhibition vs Media (normalized) [2]	DEF-4 mRNA, % of inhibition vs Media (normalized) [2]	ICAM-1 mRNA, % of inhibition vs Media (normalized) [2]	IFNg mRNA, % of inhibition vs Media (normalized) [2]	IL-8 mRNA, % of inhibition vs Media (normalized) [2]	IL-17A mRNA, % of inhibition vs Media (normalized) [2]	IL-20 mRNA, % of inhibition vs Media (normalized) [2]	K-16 mRNA, % of inhibition vs Media (normalized) [2]	LNC2 mRNA, % of inhibition vs Media (normalized) [2]	CCL13 mRNA, % of inhibition vs Media (normalized) [3]	CCL17 mRNA, % of inhibition vs Media (normalized) [3]	CCL18 mRNA, % of inhibition vs Media (normalized) [3]	CCL26 mRNA, % of inhibition vs Media (normalized) [3]	FLG mRNA, % of inhibition vs Media (normalized) [3]	IFNg mRNA, % of inhibition vs Media (normalized) [3]	IL-13 mRNA, % of inhibition vs Media (normalized) [3]	K16 mRNA, % of inhibition vs Media (normalized) [3]	LOR mRNA, % of inhibition vs Media (normalized) [3]	other results
C[C@@H]1C[C@H]2[C@@H]3CCC4=CC(=O)C=C[C@]4(C)[C@@]3(F)[C@@H](O)C[C@]2(C)[C@@]1(O)C(=O)CO [dexamethasone, reference compound]	8.7%	−15.7%	17.1%	72.7%	−70.1%	116.9%	5.5%	27.8%	96.3%	28.4%	−81.4%	−9.1%	−34.0%	270.4%	−100.0%	−100.0%	−39.8%	189.2%	IL-8 levels in relation to inflamed cells [1]: −33%; TNF-α levels in relation to inflamed cells [4]: −56%
CC/C=C\CC1C(=O)CCC1CC(=O)OC (centres unmarked) [methyl jasmonate]	–	–	–	–	–	–	–	–	–	–	–	–	–	–	–	–	–	–	percentage by weight in the culture media with bactericide effect [5]: 60 % w/w
(+)-(S)-cis,trans-abscisic acid [ABA]	140.1%	−64.8%	−40.6%	−10.7%	−71.5%	9.3%	−27.8%	24.9%	−45.7%	−59.2%	−70.1%	−72.9%	−44.2%	8.3%	9.2%	−79.0%	−69.1%	−45.5%	CFU ([6]; ABA 30 μg/ml): 158001 CFU; CFU ([6]; ABA 60(*) μg/ml, (*)concentration considered bactericide): 100000 CFU; CFU ([7]; ABA 30 μg/ml): 529000 CFU; CFU ([7]; ABA 60(*) μg/ml, (*)considered fungicide): 256000 CFU; CFU [8]: 287200 CFU; CFU on coupons [9]: 243667 CFU; CFU [10]: 585000 CFU; CFU ([11]; ABA 50 μg/ml): 289500 CFU; CFU ([11]; ABA 60 μg/ml): 268000 CFU; CFU on coupons [12]: 360000 CFU; CFU [13]: 367500 CFU
